{"source": "ChEMBL document CHEMBL4808193", "about": "“[11]-Chaetoglobosins from Pseudeurotium bakeri Induce G2/M Cell Cycle Arrest and Apoptosis in Human Cancer Cells” (J Nat Prod, 2021)", "key": {"MCF7 [1]": {"test_system": "MCF7", "experiment": "Cell cycle arrest in human MCF7 cells assessed as accumulation at G0/G1 phase at 15 uM measured after 24 hrs by PI staining based flow cytometry (reference value: 62.38%)", "assay_type": "functional"}, "MCF7 [2]": {"test_system": "MCF7", "experiment": "Induction of apoptosis in human MCF7 cells assessed as late apoptotic cells at 5 uM measured after 24 hrs by Annexin V-FITC/propidium iodide staining based flow cytometric analysis (reference value: 0.76%)", "assay_type": "functional"}, "A-427 [3]": {"test_system": "A-427", "experiment": "Induction of apoptosis in human A-427 cells assessed as late apoptotic cells at 2 uM measured after 24 hrs by Annexin V-FITC/propidium iodide staining based flow cytometric analysis (reference value: 1.70%)", "assay_type": "functional"}, "MCF7 [4]": {"test_system": "MCF7", "experiment": "Cell cycle arrest in human MCF7 cells assessed as accumulation at G2/M phase at 15 uM measured after 24 hrs by PI staining based flow cytometry (reference value: 14.79%)", "assay_type": "functional"}, "MCF7 [5]": {"test_system": "MCF7", "experiment": "Cell cycle arrest in human MCF7 cells assessed as accumulation at S phase at 5 uM measured after 24 hrs by PI staining based flow cytometry (reference value: 22.83%)", "assay_type": "functional"}, "A-427 [6]": {"test_system": "A-427", "experiment": "Cell cycle arrest in human A-427 cells assessed as accumulation at S phase at 6 uM measured after 24 hrs by PI staining based flow cytometry (reference value: 37.30%)", "assay_type": "functional"}, "MCF7 [7]": {"test_system": "MCF7", "experiment": "Cell cycle arrest in human MCF7 cells assessed as accumulation at G2/M phase at 10 uM measured after 24 hrs by PI staining based flow cytometry (reference value: 14.79%)", "assay_type": "functional"}, "MCF7 [8]": {"test_system": "MCF7", "experiment": "Induction of apoptosis in human MCF7 cells assessed as late apoptotic cells at 15 uM measured after 24 hrs by Annexin V-FITC/propidium iodide staining based flow cytometric analysis (reference value: 0.76%)", "assay_type": "functional"}, "A-427 [9]": {"test_system": "A-427", "experiment": "Induction of apoptosis in human A-427 cells assessed as early apoptotic cells at 2 uM measured after 24 hrs by Annexin V-FITC/propidium iodide staining based flow cytometric analysis (reference value: 4.50%)", "assay_type": "functional"}, "HepG2": {"test_system": "HepG2", "experiment": "Cytotoxicity against human HepG2 cells assessed as reduction in cell viability by MTT assay", "assay_type": "functional, cell-based"}, "MCF7 [10]": {"test_system": "MCF7", "experiment": "Cytotoxicity against human MCF7 cells assessed as reduction in cell viability by MTT assay", "assay_type": "functional, cell-based"}, "MCF7 [11]": {"test_system": "MCF7", "experiment": "Cell cycle arrest in human MCF7 cells assessed as accumulation at G0/G1 phase at 5 uM measured after 24 hrs by PI staining based flow cytometry (reference value: 62.38%)", "assay_type": "functional"}, "A-427 [12]": {"test_system": "A-427", "experiment": "Cell cycle arrest in human A-427 cells assessed as accumulation at G2/M phase at 6 uM measured after 24 hrs by PI staining based flow cytometry (reference value: 17.34%)", "assay_type": "functional"}, "MCF7 [13]": {"test_system": "MCF7", "experiment": "Cell cycle arrest in human MCF7 cells assessed as accumulation at G0/G1 phase at 10 uM measured after 24 hrs by PI staining based flow cytometry (reference value: 62.38%)", "assay_type": "functional"}, "A-427 [14]": {"test_system": "A-427", "experiment": "Cell cycle arrest in human A-427 cells assessed as accumulation at G0/G1 phase at 6 uM measured after 24 hrs by PI staining based flow cytometry (reference value: 45.36%)", "assay_type": "functional"}, "MCF7 [15]": {"test_system": "MCF7", "experiment": "Cell cycle arrest in human MCF7 cells assessed as accumulation at S phase at 15 uM measured after 24 hrs by PI staining based flow cytometry (reference value: 22.83%)", "assay_type": "functional"}, "HeLa": {"test_system": "HeLa", "experiment": "Cytotoxicity against human HeLa cells assessed as reduction in cell viability by MTT assay", "assay_type": "functional, cell-based"}, "MCF7 [16]": {"test_system": "MCF7", "experiment": "Induction of apoptosis in human MCF7 cells assessed as early apoptotic cells at 10 uM measured after 24 hrs by Annexin V-FITC/propidium iodide staining based flow cytometric analysis (reference value: 2.97%)", "assay_type": "functional"}, "MCF7 [17]": {"test_system": "MCF7", "experiment": "Induction of apoptosis in human MCF7 cells assessed as late apoptotic cells at 10 uM measured after 24 hrs by Annexin V-FITC/propidium iodide staining based flow cytometric analysis (reference value: 0.76%)", "assay_type": "functional"}, "A-427 [18]": {"test_system": "A-427", "experiment": "Cell cycle arrest in human A-427 cells assessed as accumulation at G0/G1 phase at 2 uM measured after 24 hrs by PI staining based flow cytometry (reference value: 45.36%)", "assay_type": "functional"}, "A-427 [19]": {"test_system": "A-427", "experiment": "Induction of apoptosis in human A-427 cells assessed as late apoptotic cells at 4 uM measured after 24 hrs by Annexin V-FITC/propidium iodide staining based flow cytometric analysis (reference value: 1.70%)", "assay_type": "functional"}, "A-427 [20]": {"test_system": "A-427", "experiment": "Induction of apoptosis in human A-427 cells assessed as early apoptotic cells at 4 uM measured after 24 hrs by Annexin V-FITC/propidium iodide staining based flow cytometric analysis (reference value: 4.50%)", "assay_type": "functional"}, "HT-29": {"test_system": "HT-29", "experiment": "Cytotoxicity against human HT-29 cells assessed as reduction in cell viability by MTT assay", "assay_type": "functional, cell-based"}, "A-427 [21]": {"test_system": "A-427", "experiment": "Cell cycle arrest in human A-427 cells assessed as accumulation at S phase at 2 uM measured after 24 hrs by PI staining based flow cytometry (reference value: 37.30%)", "assay_type": "functional"}, "A-427 [22]": {"test_system": "A-427", "experiment": "Cell cycle arrest in human A-427 cells assessed as accumulation at S phase at 4 uM measured after 24 hrs by PI staining based flow cytometry (reference value: 37.30%)", "assay_type": "functional"}, "A-427 [23]": {"test_system": "A-427", "experiment": "Cell cycle arrest in human A-427 cells assessed as accumulation at G2/M phase at 2 uM measured after 24 hrs by PI staining based flow cytometry (reference value: 17.34%)", "assay_type": "functional"}, "HCT-116": {"test_system": "HCT-116", "experiment": "Cytotoxicity against human HCT-116 cells assessed as reduction in cell viability by MTT assay", "assay_type": "functional, cell-based"}, "A-427 [24]": {"test_system": "A-427", "experiment": "Cytotoxicity against human A-427 cells assessed as reduction in cell viability by MTT assay", "assay_type": "functional, cell-based"}, "A-427 [25]": {"test_system": "A-427", "experiment": "Induction of apoptosis in human A-427 cells assessed as early apoptotic cells at 6 uM measured after 24 hrs by Annexin V-FITC/propidium iodide staining based flow cytometric analysis (reference value: 4.50%)", "assay_type": "functional"}, "MCF7 [26]": {"test_system": "MCF7", "experiment": "Induction of apoptosis in human MCF7 cells assessed as early apoptotic cells at 5 uM measured after 24 hrs by Annexin V-FITC/propidium iodide staining based flow cytometric analysis (reference value: 2.97%)", "assay_type": "functional"}, "L02": {"test_system": "L02", "experiment": "Cytotoxicity against human L02 cells assessed as reduction in cell viability by MTT assay", "assay_type": "cell-based"}, "MCF7 [27]": {"test_system": "MCF7", "experiment": "Cell cycle arrest in human MCF7 cells assessed as accumulation at S phase at 10 uM measured after 24 hrs by PI staining based flow cytometry (reference value: 22.83%", "assay_type": "functional"}, "A-427 [28]": {"test_system": "A-427", "experiment": "Induction of apoptosis in human A-427 cells assessed as late apoptotic cells at 6 uM measured after 24 hrs by Annexin V-FITC/propidium iodide staining based flow cytometric analysis (reference value: 1.70%)", "assay_type": "functional"}, "A549": {"test_system": "A549", "experiment": "Cytotoxicity against human A549 cells assessed as reduction in cell viability by MTT assay", "assay_type": "functional, cell-based"}, "MCF7 [29]": {"test_system": "MCF7", "experiment": "Induction of apoptosis in human MCF7 cells assessed as early apoptotic cells at 15 uM measured after 24 hrs by Annexin V-FITC/propidium iodide staining based flow cytometric analysis (reference value: 2.97%)", "assay_type": "functional"}, "A-427 [30]": {"test_system": "A-427", "experiment": "Cell cycle arrest in human A-427 cells assessed as accumulation at G0/G1 phase at 4 uM measured after 24 hrs by PI staining based flow cytometry (reference value: 45.36%)", "assay_type": "functional"}, "MCF7 [31]": {"test_system": "MCF7", "experiment": "Cell cycle arrest in human MCF7 cells assessed as accumulation at G2/M phase at 5 uM measured after 24 hrs by PI staining based flow cytometry (reference value: 14.79%)", "assay_type": "functional"}, "A-427 [32]": {"test_system": "A-427", "experiment": "Cell cycle arrest in human A-427 cells assessed as accumulation at G2/M phase at 4 uM measured after 24 hrs by PI staining based flow cytometry (reference value: 17.34%)", "assay_type": "functional"}}}
{"smiles": "CC1=C[C@@H]2/C=C/C[C@H](C)CC(=O)/C=C/C(=O)[C@]23C(=O)N[C@@H](Cc2c[nH]c4ccccc24)[C@@H]3[C@@H]1C", "values": [{"measurement": "Activity", "setting": "MCF7 [1]", "result": 36.2, "unit": "%"}, {"measurement": "Activity", "setting": "MCF7 [2]", "result": 5.79, "unit": "%"}, {"measurement": "Activity", "setting": "A-427 [3]", "result": 14.29, "unit": "%"}, {"measurement": "Activity", "setting": "MCF7 [4]", "result": 55.69, "unit": "%"}, {"measurement": "Activity", "setting": "MCF7 [5]", "result": 8.32, "unit": "%"}, {"measurement": "Activity", "setting": "A-427 [6]", "result": 16.51, "unit": "%"}, {"measurement": "Activity", "setting": "MCF7 [7]", "result": 51.9, "unit": "%"}, {"measurement": "Activity", "setting": "MCF7 [8]", "result": 13.22, "unit": "%"}, {"measurement": "Activity", "setting": "A-427 [9]", "result": 8.26, "unit": "%"}, {"measurement": "IC50", "setting": "HepG2", "result": 9.1, "unit": "µM"}, {"measurement": "IC50", "setting": "MCF7 [10]", "result": 6.5, "unit": "µM"}, {"measurement": "Activity", "setting": "MCF7 [11]", "result": 49.01, "unit": "%"}, {"measurement": "Activity", "setting": "A-427 [12]", "result": 49.58, "unit": "%"}, {"measurement": "Activity", "setting": "MCF7 [13]", "result": 40.98, "unit": "%"}, {"measurement": "Activity", "setting": "A-427 [14]", "result": 33.91, "unit": "%"}, {"measurement": "Activity", "setting": "MCF7 [15]", "result": 8.11, "unit": "%"}, {"measurement": "IC50", "setting": "HeLa", "result": 8.6, "unit": "µM"}, {"measurement": "Activity", "setting": "MCF7 [16]", "result": 19.17, "unit": "%"}, {"measurement": "Activity", "setting": "MCF7 [17]", "result": 6.99, "unit": "%"}, {"measurement": "Activity", "setting": "A-427 [18]", "result": 43.99, "unit": "%"}, {"measurement": "Activity", "setting": "A-427 [19]", "result": 25.77, "unit": "%"}, {"measurement": "Activity", "setting": "A-427 [20]", "result": 19.74, "unit": "%"}, {"measurement": "IC50", "setting": "HT-29", "result": 8.9, "unit": "µM"}, {"measurement": "Activity", "setting": "A-427 [21]", "result": 19.88, "unit": "%"}, {"measurement": "Activity", "setting": "A-427 [22]", "result": 16.28, "unit": "%"}, {"measurement": "Activity", "setting": "A-427 [23]", "result": 36.13, "unit": "%"}, {"measurement": "IC50", "setting": "HCT-116", "result": 12.2, "unit": "µM"}, {"measurement": "IC50", "setting": "A-427 [24]", "result": 4.8, "unit": "µM"}, {"measurement": "Activity", "setting": "A-427 [25]", "result": 24.44, "unit": "%"}, {"measurement": "Activity", "setting": "MCF7 [26]", "result": 11.22, "unit": "%"}, {"measurement": "IC50", "setting": "L02", "result": 36.3, "unit": "µM"}, {"measurement": "Activity", "setting": "MCF7 [27]", "result": 7.12, "unit": "%"}, {"measurement": "Activity", "setting": "A-427 [28]", "result": 29.64, "unit": "%"}, {"measurement": "IC50", "setting": "A549", "result": 9.5, "unit": "µM"}, {"measurement": "Activity", "setting": "MCF7 [29]", "result": 32.79, "unit": "%"}, {"measurement": "Activity", "setting": "A-427 [30]", "result": 36.51, "unit": "%"}, {"measurement": "Activity", "setting": "MCF7 [31]", "result": 42.67, "unit": "%"}, {"measurement": "Activity", "setting": "A-427 [32]", "result": 47.21, "unit": "%"}]}
